PubChem BioAssay AID624372 (Broad Institute, 2012)
Inconclusive results are not listed. Calls of active or inactive are those of the source.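 The calls were made as follows: active = fitted curve reaches -35% activity change below twice the top valid dose, with every replicate test called active; inconclusive = replicate tests disagree on the call; inactive = every replicate test called inactive.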

test system: not listed separately; assay: cytotoxicity in untransfected HEK293T cells – cell-based, CellTiter-Glo luminescence, dry powder, counter-screen for EBV LMP1 inhibitor project, dose response (AID 624372); settings: HEK293T viability, CellTiter-Glo ATP luminescence, 48 h; at 10 µM (top of the series)

SMILES	activity change, negative = cytotoxicity
C/C(=N\NC(=S)N1CC2CCC(CC2)C1)c1ccncn1	18.8% (inactive)

same assay, conditions: HEK293T viability, CellTiter-Glo ATP luminescence, 48 h; at 15 µM (top of the series)

SMILES	activity change, negative = cytotoxicity
C=C1C[C@]23C[C@@]1(O)CC[C@H]2[C@@]12C=C[C@H](O)[C@@](C)(C(=O)O1)[C@H]2[C@@H]3C(=O)O	15.6% (inactive)

same assay, conditions: HEK293T viability, CellTiter-Glo ATP luminescence, 48 h; at 19.5 µM (top of the series)

SMILES	activity change, negative = cytotoxicity
COc1ccccc1NC(=S)N/N=C(\C)c1ccccn1	3.97% (inactive)
S=C(N/N=C(\c1ccccc1)c1ccccn1)N(Cc1ccccn1)Cc1ccccn1	8.82% (inactive)
C/C(=N\NC(=S)Nc1cccc(C)c1)c1ccccn1	-10.2% (inactive)
CSC(=S)N/N=C(\C)c1cccc(C)n1	17.8% (inactive)

same assay, conditions: HEK293T viability, CellTiter-Glo ATP luminescence, 48 h; at 26 µM (top of the series)

SMILES	activity change, negative = cytotoxicity
COc1ccc2[nH]c(C(=O)N/N=C/c3ccc(O)cc3O)cc2c1	3.87% (inactive)
COc1ccc(C(=O)Nc2ccc3[nH]ccc3c2)cc1	12.8% (inactive)
CCN1CCN(C(c2cccnc2)c2cc(Cl)c3cccnc3c2O)CC1 (centres undefined)	14% (inactive)
CCn1c2ccccc2c2cc(/C=N/n3cnnc3)ccc21	12.2% (inactive)
C=CCN1Cc2ccccc2[C@@H]2OC(c3ccc(OCCCO)cc3)=N[C@]2(CCC(=O)OC(C)(C)C)C1=O	6.61% (inactive)
C[C@H](CO)N1C[C@H](C)[C@@H](CN(C)CC2CC2)OCCCC[C@H](C)Oc2ccc(NC(=O)Nc3cccc4ccccc34)cc2C1=O	33.4% (inactive)
Cc1ccc(S(=O)(=O)Nc2ccc3c(c2)C(=O)N([C@@H](C)CO)C[C@H](C)[C@@H](CN(C)C(=O)CCC(F)(F)F)OCCCC[C@H](C)O3)cc1	0.533% (inactive)
C[C@@H]1CCCCO[C@H](CN(C)C(=O)c2ccccc2)[C@H](C)CN([C@@H](C)CO)C(=O)c2cc(NC(=O)Nc3ccc(F)cc3)ccc2O1	5.32% (inactive)
C[C@@H]1CCCCO[C@@H](CN(C)Cc2ccccc2)[C@H](C)CN([C@H](C)CO)C(=O)c2cc(NC(=O)Nc3ccc4c(c3)OCO4)ccc2O1	1.15% (inactive)
Cc1cc(NC(=O)c2ccc3c(c2)OCCO3)no1	6.92% (inactive)
O=C(CCc1ccccc1)NC(c1cccs1)c1cc(Cl)c2cccnc2c1O (centres undefined)	6.13% (inactive)
CCc1ccc(/C=C2\SC(=S)N(CCCC(=O)Nc3ccccn3)C2=O)cc1	1.67% (inactive)
c1ccc(-c2cn3c4c(sc3n2)CCCC4)cc1	3.96% (inactive)
CC12CCC3C(CC=C4CC(O)CCC43CO)C1CCC2OC(=O)c1ccccc1 (centres undefined)	-2.56% (inactive)
C[C@@H]1CCCCO[C@H](CN(C)S(=O)(=O)c2ccccc2)[C@@H](C)CN([C@@H](C)CO)C(=O)c2cc(N(C)C)ccc2O1	16.8% (inactive)
CNC[C@@H]1Oc2ccc(NS(=O)(=O)c3cn(C)cn3)cc2CC(=O)N([C@H](C)CO)C[C@@H]1C	-4.73% (inactive)
O=C(CSc1nnc2c3ccccc3n(Cc3ccccc3)c2n1)NCc1ccco1	-2.78% (inactive)
COc1ccccc1[C@]1(C)ON(c2ccccc2C(F)(F)F)C1=O	21.8% (inactive)
Oc1cccc(C(Nc2nccs2)c2ccc3cccnc3c2O)c1 (centres undefined)	4.52% (inactive)
CSc1nc(-c2ccc(C)cc2)nc(C(Cl)Cl)n1	1.77% (inactive)

SMILES	activity change, negative = cytotoxicity
C[C@@H]1CCCCO[C@H](CN(C)C(=O)NC2CCCCC2)[C@H](C)CN([C@@H](C)CO)C(=O)c2cc(NC(=O)C3CCCCC3)ccc2O1	3.97% (inactive)
COc1ccc2nc(Nc3nc(C)c(CCC(C)C)c(=O)[nH]3)nc(C)c2c1	4.99% (inactive)
Cc1ccc(S(=O)(=O)NC(CC(C)C)C(=O)NCC(c2ccco2)N2CCCCC2)cc1 (centres undefined)	2.47% (inactive)
CC1CN(C(=O)CSc2nnc3c4ccccc4n(Cc4cccc(Cl)c4)c3n2)CCN1C(=O)c1ccccc1F (centres undefined)	19.4% (inactive)
O=C(Nc1cc(C(F)(F)F)cc(C(F)(F)F)c1)Nc1cnn(-c2ccc([N+](=O)[O-])cc2)c1C(F)(F)F	5.06% (inactive)
c1ccc(Cn2c3ccccc3c3nnc(SCCN4CCCCC4)nc32)cc1	-15% (inactive)
CC(=O)Nc1nc(C)c(-c2csc(Nc3ccc(O)cc3)n2)s1	2.53% (inactive)
COc1ccc(-c2cc3nc4n(c(=O)c3s2)CCC4)cc1	3.13% (inactive)
O=C1/C(=C/c2ccncc2)SC(=S)N1Cc1ccccc1	7.62% (inactive)
COc1ccc(-c2csc3ncnc(NCCN4CCOCC4)c23)cc1	7.09% (inactive)
C[C@@H]1CCCCO[C@H](CN(C)C(=O)CCC(F)(F)F)[C@H](C)CN([C@@H](C)CO)C(=O)c2cc(NC(=O)CCC(F)(F)F)ccc2O1	-7.41% (inactive)
C[C@@H]1CCCCO[C@H](CN(C)CC2CCCCC2)[C@H](C)CN([C@@H](C)CO)C(=O)c2cc(NC(=O)NC3CCCCC3)ccc2O1	4.75% (inactive)
C[C@@H]1CN([C@@H](C)CO)C(=O)c2cc(NC(=O)Nc3ccc(C(F)(F)F)cc3)ccc2O[C@@H](C)CCCCO[C@H]1CN(C)Cc1ccc(C(F)(F)F)cc1	-3.84% (inactive)
CC1=C(C(=O)OCc2ccc3c(c2)OCO3)C(c2ccc(F)cc2)NC(=O)N1 (centres undefined)	1.04% (inactive)
CCc1ccc(/C=C/C(=O)C2C(=O)c3ccccc3C2=O)cc1	1.92% (inactive)
Cc1ccc(NC(=O)C2CCN(S(=O)(=O)c3ccc4c(c3)NC(=O)C(C)S4)CC2)cc1Cl (centres undefined)	44.9% (inactive)
O=c1[nH]c(Nc2nc3ccccc3o2)nc2c1CCCC2	-4.82% (inactive)
COc1cccc(/C=N/Nc2ncnc3c2ncn3Cc2ccccc2)c1O	15.7% (inactive)
C[C@@H]1CN([C@@H](C)CO)C(=O)c2cc(NC(=O)Nc3ccc4c(c3)OCO4)ccc2O[C@H]1CN(C)CC1CCCCC1	-4.73% (inactive)

test system: HEK293T viability, CellTiter-Glo ATP luminescence, 48 h; assay: as above; settings: not given

SMILES	AC35
C/C(=N\NC(=S)N1CCCC1)c1ccccn1	11 µM
Fc1ccc2c(c1)c1nnc(SCCN3CCOCC3)nc1n2Cc1ccccc1	16.9 µM
C/C=C/C/C=C/CCC(=O)[C@H]1O[C@H]1C(N)=O	18.3 µM
C/C(=N\NC(=S)N1CC2CCC(CC2)C1)c1cnccn1	7.95 µM
C=C1C[C@]23C[C@@]1(O)CC[C@@H]2c1cccc(C)c1[C@@H]3C(=O)O	7.6 µM
C/C(=N\NC(=S)N1CCN(c2ccccn2)CC1)c1ccccn1	11.3 µM
C[C@H](CO)N1C[C@H](C)[C@H](CN(C)C(=O)Nc2ccc(C(F)(F)F)cc2)OCCCC[C@H](C)Oc2ccc(NC(=O)Nc3ccc(F)cc3)cc2C1=O	48.2 µM
Cc1ccnc(NC(=O)c2ccc(C(=O)c3ccccc3)cc2)c1	72 µM
COCCCNC(=O)C(C)Sc1nnc2c3cc(C)ccc3n(Cc3ccccc3F)c2n1 (centres undefined)	56 µM
COc1ccc(NC(=O)c2ccc(OC(C)C(=O)O)cc2)cc1Cl (centres undefined)	37.6 µM
C/C(=N\NC(=S)Nc1cccc(Cl)c1)c1ccccn1	16.2 µM
O=c1[nH]c(=O)n([C@H]2C[C@H](O)[C@@H](CO)O2)cc1C(F)(F)F	27.4 µM
C/C(=N\NC(=S)N1CCCCC1)c1cccc(C)n1	0.785 µM
C/C(=N\NC(=S)N1CC2CCC(CC2)C1)c1cccc(C)n1	2.02 µM
C/C(=N\NC(=S)N1CCCCC1)c1ccccn1	10.9 µM
Cc1c(NC(=O)c2cccc(NC(=O)COc3ccccc3C#N)c2)c(=O)n(-c2ccccc2)n1C	24.4 µM
CCC(Sc1nnc2c3ccccc3n(Cc3ccc(Br)cc3)c2n1)C(=O)NCCCN1CCOCC1 (centres undefined)	21.2 µM
S=C(NCc1ccccn1)N/N=C/c1ccccn1	29.6 µM
C[C@@H]1CN([C@@H](C)CO)C(=O)c2cc(NC(=O)Nc3ccc(C(F)(F)F)cc3)ccc2O[C@@H](C)CCCCO[C@@H]1CN(C)CC1CCCCC1	62.9 µM
